Values of other authors as cited in patent US5498598A, “Composition for nasal administration of desmopressin” (Ferring AB, priority 1995, dated 1996).

Details: in vivo

- absorption of a given amount in larger volume versus the same amount in smaller volume: absorbed substantially less effectively
Compound: NC(=O)CC[C@@H]1NC(=O)[C@H](Cc2ccccc2)NC(=O)[C@H](Cc2ccc(O)cc2)NC(=O)CCSSC[C@@H](C(=O)N2CCC[C@H]2C(=O)N[C@H](CCCN=C(N)N)C(=O)NCC(N)=O)NC(=O)[C@H](CC(N)=O)NC1=O [desmopressin, 1-(3-mercaptopropionic acid)-8-D-arginine-vasopressin]
